Earlier results as cited in patent US20050171000A1, “Three dimensional coordinates of melanocortin-4 receptors” (The Procter & Gamble Company, priority 2003, published 2005).

Biological target: T1, MC4-R (Rattus norvegicus, UniProt P70596)
T1 construct: host or cells: living rats, intraventricular administration (endogenous receptor)
Conditions: intraventricular administration

T1 sequence (P70596 whole entry): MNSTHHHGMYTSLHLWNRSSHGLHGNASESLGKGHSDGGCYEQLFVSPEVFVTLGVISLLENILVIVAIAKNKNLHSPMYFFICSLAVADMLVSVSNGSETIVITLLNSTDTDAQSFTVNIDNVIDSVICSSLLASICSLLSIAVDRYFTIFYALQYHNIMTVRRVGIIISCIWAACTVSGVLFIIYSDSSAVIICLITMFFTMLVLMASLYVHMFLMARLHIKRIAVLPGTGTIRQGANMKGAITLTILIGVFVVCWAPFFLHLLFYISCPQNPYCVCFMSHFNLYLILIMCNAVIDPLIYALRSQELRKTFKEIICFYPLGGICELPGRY

- food intake: reduced
Substance: MTII
